The source of these data is ChEMBL document CHEMBL4616641, “4-Hydroxy-3-methylbenzofuran-2-carbohydrazones as novel LSD1 inhibitors” (Bioorg Med Chem Lett, 2020).

One assay concerns PC-3. Description: Antiproliferative activity against human PC3 cells assessed as inhibition of cell growth.
For another assay, the system named is MGC-803. The assay can be described thus: Antiproliferative activity against human MGC803 cells assessed as inhibition of cell growth by MTT assay. In general terms: Formazan colour is commonly taken as a measure of viable cells.
In a further assay the test system is U-87 MG. The assay can be described thus: Antiproliferative activity against human U87MG cells assessed as inhibition of cell growth.
The subject of the next assay is PANC-1. The assay can be described thus: Antiproliferative activity against human PANC1 cells assessed as inhibition of cell growth.
The next assay concerns HT-29. Description: Antiproliferative activity against human HT-29 cells assessed as inhibition of cell growth.
The test system of another assay is MCF7. Description: Antiproliferative activity against human MCF7 cells assessed as inhibition of cell growth.

One may read the IC50 as the concentration that gives 50% inhibition. Turning to `Cc1c(C(=O)N/N=C\c2cccc(F)c2)oc2cccc(O)c12`, in the assay with PC-3, the half-maximal inhibitory concentration (IC50) is no less than 40 µM.
In the case of `Cc1c(C(=O)N/N=C\c2cccc(O)c2O)oc2cccc(O)c12`, the half-maximal inhibitory concentration (IC50) with PC-3 was found to be 12.2 µM; in the assay on MGC-803, 5.03 µM.
Regarding `Cc1c(C(=O)N/N=C\c2cccs2)oc2cccc(O)c12`, the IC50 with PC-3 turned out to be 22.3 µM.
On the same count and under the same terms, the value for `Cc1c(C(=O)N/N=C\c2ccccc2F)oc2cccc(O)c12` was no less than 40 µM; that for `Cc1c(C(=O)N/N=C\c2ccc(O)cc2)oc2cccc(O)c12` was 21.7 µM; that for `Cc1c(C(=O)N/N=C\c2ccco2)oc2cccc(O)c12` was no less than 40 µM.
In the case of `Cc1c(C(=O)N/N=C\c2cccc(Br)c2O)oc2cccc(O)c12`, the IC50 in the assay on PC-3 was determined as 16.6 µM; in the assay with MGC-803, 14.2 µM.
As for `Cc1c(C(=O)N/N=C\c2ccc(C(F)(F)F)cc2)oc2cccc(O)c12`, the IC50 with PC-3 was no less than 40 µM.
Consider `Cc1c(C(=O)N/N=C\c2cc(Cl)ccc2O)oc2cccc(O)c12`, for which the IC50 in the assay with PC-3 was 3.12 µM; with MGC-803, 4.16 µM.
The corresponding values for `Cc1c(C(=O)N/N=C\c2ccccc2O)oc2cccc(O)c12` are 8.35 µM and 10.6 µM.
Take `Cc1c(C(=O)N/N=C\c2ccccc2C(F)(F)F)oc2cccc(O)c12`: the IC50 in the assay with PC-3 was 26.2 µM.
The same measure, in the same setting: the value for `Cc1c(C(=O)N/N=C\c2ccc(F)cc2)oc2cccc(O)c12` was no less than 40 µM.
`Cc1c(C(=O)N/N=C\c2cc(Cl)cc(Cl)c2O)oc2cccc(O)c12`: the IC50 came out at 9.59 µM in the assay with PC-3 and 4.36 µM with MGC-803.
For the compound `COc1ccccc1/C=N\NC(=O)c1oc2cccc(O)c2c1C`, the IC50 with PC-3 came out at 32.7 µM.
On the same count and under the same terms, the value for `Cc1c(C(=O)N/N=C\c2ccncc2)oc2cccc(O)c12` was no less than 40 µM.
For the compound `Cc1c(C(=O)N/N=C\c2cc(F)ccc2O)oc2cccc(O)c12`, the results for the IC50 in the assay with PC-3 and with MGC-803 were 3.17 µM and 5.23 µM, respectively.
For `Cc1c(C(=O)N/N=C\c2ccc(Br)cc2O)oc2cccc(O)c12`, the values for the IC50 in the assay on PC-3 and in the assay with MGC-803 were 2.05 µM and 5.46 µM, respectively.
For `Cc1c(C(=O)N/N=C\c2cccnc2)oc2cccc(O)c12`, the IC50 in the assay with PC-3 is no less than 40 µM.
Same read-out and setting: the value for `Cc1c(C(=O)N/N=C\c2cc([N+](=O)[O-])ccc2O)oc2cccc(O)c12` was 17.1 µM.
On to `Cc1c(C(=O)N/N=C\c2cccc(F)c2O)oc2cccc(O)c12`, for which the IC50 came out at 12.7 µM in the assay on PC-3 and 8.35 µM in the assay on MGC-803.
For the compound `Cc1c(C(=O)N/N=C\c2c(O)cccc2Cl)oc2cccc(O)c12`, in the assay with PC-3, the IC50 came to 18.7 µM.
As for `Cc1c(C(=O)N/N=C\c2cc(O)ccc2O)oc2cccc(O)c12`, the IC50 with PC-3 was 95.5 µM.
For the compound `Cc1ccc(O)c(/C=N\NC(=O)c2oc3cccc(O)c3c2C)c1`, the IC50 was 7.35 µM with PC-3 and 5.99 µM in the assay with MGC-803.
Turning to `Cc1c(C(=O)N/N=C\c2ccc(O)c(O)c2O)oc2cccc(O)c12`, the IC50 with PC-3 was no less than 40 µM; in the assay with U-87 MG it was 5.96 µM; with PANC-1, greater than 20 µM; in the assay with MGC-803, 18.1 µM; in the assay on HT-29 it was greater than 20 µM; in the assay with MCF7 it was 17.1 µM.
Turning to `Cc1c(C(=O)N/N=C\c2ccccc2)oc2cccc(O)c12`, the IC50 in the assay with PC-3 amounted to 29.2 µM.
`COc1cccc(/C=N\NC(=O)c2oc3cccc(O)c3c2C)c1`: in the assay on PC-3, the IC50 is no less than 40 µM.
Consider `Cc1c(C(=O)N/N=C\c2ccc(O)cc2O)oc2cccc(O)c12`, for which the IC50 in the assay with PC-3 was 14.8 µM; in the assay on U-87 MG, 4.39 µM; in the assay on PANC-1 it was 9.77 µM; in the assay on MGC-803, 7.33 µM; in the assay on HT-29, 2.88 µM; in the assay with MCF7 it was 2.08 µM.
`Cc1c(C(=O)N/N=C\c2ccccn2)oc2cccc(O)c12`: the IC50 in the assay with PC-3 is no less than 40 µM.
On to `Cc1c(C(=O)N/N=C\c2c(O)cccc2F)oc2cccc(O)c12`, for which the IC50 in the assay with PC-3 worked out at 8.05 µM; in the assay with U-87 MG, 9.27 µM; with PANC-1, 8.23 µM; in the assay with MGC-803, 10.8 µM; with HT-29, 2.2 µM; in the assay on MCF7 it was 1.75 µM.
In the case of `Cc1c(C(=O)N/N=C\c2cccc(O)c2)oc2cccc(O)c12`, the half-inhibitory concentration (IC50) in the assay on PC-3 was found to be 17.6 µM.
